Assay results taken from paper PMC8446442, “Crystal Structure of Mycobacterium tuberculosis Elongation Factor G1” (Frontiers in Molecular Biosciences, 2021).

What was measured:
[1] = target: T1, Mtb EF-G1 (Elongation factor G1) (Mycobacterium tuberculosis, UniProt P9WNM7); assay: ITC at […] °C; crystal structure of the complex ([…] Å, SeMet SAD); format: binding; parameters: gene fusA; recombinant Mtb EF-G1 with a C-terminal His tag
[2] = target: T1, Mtb EF-G1 (Elongation factor G1); assay: SPR (Biacore T200), […] steady-state affinity fit; format: binding; parameters: gene fusA; recombinant Mtb EF-G1 with a C-terminal His tag, immobilized on CM5 chip

T1 sequence (P9WNM7 whole entry): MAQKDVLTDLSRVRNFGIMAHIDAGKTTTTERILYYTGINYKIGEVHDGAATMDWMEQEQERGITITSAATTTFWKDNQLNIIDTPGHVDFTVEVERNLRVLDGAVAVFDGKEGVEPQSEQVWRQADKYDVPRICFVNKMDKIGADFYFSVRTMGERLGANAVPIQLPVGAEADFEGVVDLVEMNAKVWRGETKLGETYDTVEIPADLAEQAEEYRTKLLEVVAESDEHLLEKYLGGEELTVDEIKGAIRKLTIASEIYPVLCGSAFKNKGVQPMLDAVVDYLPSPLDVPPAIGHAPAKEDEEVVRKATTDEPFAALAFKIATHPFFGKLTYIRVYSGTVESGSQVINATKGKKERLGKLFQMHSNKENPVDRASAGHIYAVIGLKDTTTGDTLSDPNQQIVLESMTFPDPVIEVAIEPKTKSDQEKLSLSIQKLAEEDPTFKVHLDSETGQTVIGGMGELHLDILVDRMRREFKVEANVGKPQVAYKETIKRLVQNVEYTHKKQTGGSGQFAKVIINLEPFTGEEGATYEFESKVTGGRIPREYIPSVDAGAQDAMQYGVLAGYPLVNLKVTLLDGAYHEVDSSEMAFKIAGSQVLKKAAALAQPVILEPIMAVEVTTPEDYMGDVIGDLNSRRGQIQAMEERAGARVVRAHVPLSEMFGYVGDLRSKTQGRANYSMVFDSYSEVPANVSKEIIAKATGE

Nc1nc2c(ncn2[C@@H]2O[C@H](COP(=O)(O)OP(=O)(O)O)[C@@H](O)[C@H]2O)c(=O)[nH]1 [GDP]
Kd [1]: 11.5 ± 0.3 µM

CC(=O)O[C@H]1C[C@@]2(C)[C@@H](C[C@@H](O)[C@H]3[C@@]4(C)CC[C@@H](O)[C@@H](C)[C@@H]4CC[C@@]32C)/C1=C(\CCC=C(C)C)C(=O)O [FA, Fusidic acid]
Kd [2]: 3.54 µM
